Reference: patent US20030131363A1, “Heme-regulated eukaryotic initiation factor 2 alpha kinase knockout mice and methods for use” (Massachusetts Institute of Technology, priority 2001, published 2003)

Columns and labels:
[1] = test system: HRI +/+ reticulocytes; assay: [35S]-methionine incorporation / protein (globin) synthesis in isolated intact reticulocytes, HRI +/+; type: cell-based, mouse
Method: (§1) Mice were injected with phenylhydrazine at 40 mg/kg on days 0, 1 and 3 to induce hemolysis, and the subsequent erythropoiesis and release of reticulocytes into the blood stream. Blood samples were collected by heart puncture on day 7 when the reticulocyte counts were 85-95%. Reticulocytes were washed twice with ice-cold phosphate-buffered saline supplemented with 5 mM glucose. For protein synthesis assays, reticulocytes were resuspended in DMEM (2×10^8 cells/ml) with 1/10 concentration of methionine plus 2% dialyzed fetal bovine serum and preincubated for 30 min at 37_C for recovery. […] Incorporation of the [^35S]-methionine in the globin chains and other proteins was analyzed by 15% SDS-PAGE, and subsequent transfer to nitrocellulose membranes. Protein synthesis in reticulocytes was quantitated by scintillation counting of the nitrocellulose strips containing globin chains. Phosphorylation of HRI and eIF2a in isolated reticulocytes were analyzed by western blot analysis following 7.5% and 12% SDS-PAGE respectively. […]
(§2) HRI−/− mice are viable and fertile without gross morphological abnormalities. […] The IF2Alpha kinase activity of HRI in reticulocyte lysates was determined using in vitro protein kinase assays. The extent of the eIF2a phosphorylation was determined by western-blot analysis using antibody specific to the phosphorylated eIF2a. […]

[2] = test system: HRI−/− reticulocytes; assay: [35S]-methionine incorporation / protein (globin) synthesis in isolated intact reticulocytes, HRI−/−; type: cell-based, mouse
Method: as §1, §2

[3] = test system: Wt mice; assay: Survival in phenylhydrazine-induced hemolysis, Wt mice; settings: Wt mice with iron-deficiency, after two injections, 50 mg/Kg
Method: (§3) States of iron deficiency have been and remain very common in humans. Thus, exposure to situations that render RBCs more fragile may be often concurrent with iron-deficiency, such as in thalassemias, sickle cell disease, malaria and other infections, extreme climatic conditions, ingestion of natural toxins, heavy metals or drugs. […] Both Wt and HRI−/− mice were injected with phenylhydrazine at the dosages as indicated at Days 0, 1 and 3. The mice were observed daily. […] Six mice of each genotype were used for each dosage. […] The standard phenylhydrazine regime employs three injections of phenylhydrazine on days 0, 1 and 3.

[4] = test system: HRI−/− mice; assay: Survival in phenylhydrazine-induced hemolysis, HRI−/− mice; settings: iron-deficient HRI−/− mice, after two injections, 50 mg/Kg
Method: as §3

[5] = molecular target: purified rabbit reticulocyte eIF-2 (alpha subunit as substrate), P83268
[6] = molecular target: purified wheat germ eIF-2Alpha
[7] = molecular target: T1, endogenous eIF2 of mouse reticulocyte lysates (alpha subunit as substrate), Q6ZWX6
T1 chain: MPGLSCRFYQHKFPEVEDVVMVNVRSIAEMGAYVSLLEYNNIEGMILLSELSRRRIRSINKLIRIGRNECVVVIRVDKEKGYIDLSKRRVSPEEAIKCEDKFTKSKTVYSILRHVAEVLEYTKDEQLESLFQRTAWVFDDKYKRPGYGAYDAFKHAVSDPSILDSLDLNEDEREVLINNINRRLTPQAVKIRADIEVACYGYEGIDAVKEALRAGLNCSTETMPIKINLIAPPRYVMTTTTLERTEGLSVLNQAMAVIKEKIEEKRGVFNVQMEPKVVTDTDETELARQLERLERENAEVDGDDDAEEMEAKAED

Sequence of purified rabbit reticulocyte eIF-2 (alpha subunit as substrate), P83268 (P83268 whole entry, looked up, tested part not stated): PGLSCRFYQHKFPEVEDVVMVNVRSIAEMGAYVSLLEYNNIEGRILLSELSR

With `C[C@@H]1C[C@@H]([C@H](O)CC2CC(=O)NC(=O)C2)C(=O)[C@@H](C)C1` [cycloheximide] the “Protein synthesis, inhibition” value ([1]; Wt reticulocytes, cycloheximide (2 ìM per method)) was “inhibited equally well” and the “Protein synthesis, inhibition” value ([2]; cycloheximide (2 ìM per method)) was “inhibited equally well”.

`NNc1ccccc1` [phenylhydrazine] was tested, and the Survival [3] was about 100% and the Mice died [4] was 90%.

With hemin the “Incorporation of [35S]-methionine into globins” value ([1]; +/+ reticulocytes, pre-treatment with 40_M hemin for 30 min prior to [35S]-methionine) was 208 % of control and the “Protein synthesis, effect of addition of hemin” value ([2]; hemin added) was “not affected”.

B1: 90 kDa polypeptide expressed from rabbit HRI cDNA (heme-regulated eIF-2 alpha kinase), in vitro translation product (protein)
chain: MLGGSAGTRGGEAEGDGAGAVGAVAPPPAIDFPAEVSDPKYDESDVPAELQVLKEPLQQPAFPFAVANQLLLVSLLEHLSHVHEPNPLRSRQVFKLLCQTFIKMGLLSSFTCSDEFSSLRLHHNRAITHLMRSARERVRQDPCADNSHIQKIRSREVALEAQTSRYLNEFEELSILGKGGYGRVYKVRNKLDGQYYAIKKILIKGATKTDCMKVLREVKVLAGLQHPNIVGYHTAWIEHVHVHVQADRVPIQLPSLEVLSDQEEDRDQYGVKNDASSSSSIIFAEFSPEKEKSSDECAVESQNNKLVNYTTNLVVRDTGEFESSTERQENGSIVERQLLFGHNSDVEEDFTSAEESSEEDLSALRHTEVQYHLMLHIQMQLCELSLWDWIAERNRRSRECVDESACPYVMVSVATKIFQELVEGVFYIHNMGIVHRDLKPRNIFLHGPDQQVKIGDFGLACADIIQKNAARTSRNGERAPTHTSRVGTCLYASPEQLEGSEYDAKSDMYSVGVILLELFQPFGTEMERAEVLTGVRAGRIPDSLSKRCPAQAKYVQLLTRRNASQRPSALQLLQSELFQNSAHVNLTLQMKIIEQEREIEELKKQLSLLSQARGVRSDRRDGELPA
B1 was tested, and the “eIF-2Alpha kinase activity (32P protein kinase assay, SDS-gel electrophoresis)” value [5] was “translational products of HRI 2A and HRI 2B mRNAs have enhanced eIF-2Alpha kinase activity as compared to the control in the absence of added mRNA”.

B2: purified reticulocyte HRI (protein)
chain: B1 chain
B2 was tested, and the “phosphorylation of eIF-2Alpha (protein kinase assay)” value [6] was “the purified reticulocyte HRI phosphorylates purified wheat germ eIF-2Alpha very inefficiently”.

B3: mouse HRI protein (heme-regulated eIF2 alpha kinase) in reticulocyte lysates (protein)
chain: MLGGSSVDGERDTDDDAAGAVAAPPAIDFPAEVSDPKYDESDVPAELQVLKEPLQQPTFPFLVANQLLLVSLLEHLSHVHEPNPLHSKQVFKLLCQTFIKMGLLSSFTCSDEFSSLRLHHNRAITHLMRSAKERVRQDPCQDNSYMQKIRSREIAFEAQTSRYLNEFEELAILGKGGYGRVYKVRNKLDGQHYAIKKILIKSATKTDCMKVLREVKVLAGLQHPNIVGYHTAWIEHVHVVQPQDRVPIQLPSLEVLSEQEGDRDQGGVKDNESSSSIVFAELTPEKEKPFGESEVKNENNNLVSYTANLVVRNSSESESSIELQEDGLTDLSVRPVVRHQLPLGHSSELEGNFTSTDESSEGNLNLLGQTEVRYHLMLHIQMQLCELSLWDWITERNKRSREYVDEAACPYVMASVATKIFQELVEGVFYIHNMGIVHRDLKPRNIFLHGPDQQVKIGDFGLACADIIQNADWTNRNGKGTRTHTSRVGTCLYASPEQLEGSQYDAKSDMYSLGVILLELFQPFGTEMERATVLTGVRTGRIPESLSKRCPVQAKYIQLLTGRNVSQRPSALQLLQSELFQTTGNVNLTLQMKIIEQEKEIEELKKQLSLLSQDRGLKR
B3 was tested, and the “in vitro eIF2 Alpha phosphorylation in reticulocyte lysates with endogenous eIF2 as substrate” value [7] was “In vitro eIF2 Alpha phosphorylation occurred in reticulocyte lysates from +/+ mice ... little eIF2 phosphorylation was detected in the reticulocyte lysates of HRI-/- mice”.
